According to ChEMBL document CHEMBL1201862, “PubChem BioAssay data set” (2004):
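Compound exposure: 48 hours, 5 concentrations, 96-well plates. GI50 marks 50% less growth.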 The source made the active and inactive calls. Cut-off read from the data, not from the text of the source: active = GI50 up to about 1.1 µM and inactive = higher. Bridge positions count the residues as written; N and C are the ends. Peptide text beside a SMILES is read from it. * marks the point of attachment. Cbz = O=C(OCc1ccccc1)*

Columns and labels:
Assay in all cases: NCI tumour cell line growth inhibition, 48 h
OVCAR-8 = tested on: OVCAR-8
U-251 = tested on: U-251
MDA-MB-231 = tested on: MDA-MB-231
SNB-19 = tested on: SNB-19
SK-OV-3 = tested on: SK-OV-3
CCRF-CEM = tested on: CCRF-CEM
SN12C = tested on: SN12C
SK-MEL-28 = tested on: SK-MEL-28
M14 = tested on: M14
KM12 = tested on: KM12
HCT-116 = tested on: HCT-116
MCF7 = tested on: MCF7
NCI/ADR-RES = tested on: NCI/ADR-RES
MOLT-4 = tested on: MOLT-4
TK-10 = tested on: TK-10
HL-60 = tested on: HL-60
ACHN = tested on: ACHN
HOP-62 = tested on: HOP-62
UO-31 = tested on: UO-31
HCC 2998 = tested on: HCC 2998

SMILES | GI50 (OVCAR-8) | GI50 (U-251) | GI50 (MDA-MB-231) | GI50 (SNB-19) | GI50 (SK-OV-3) | GI50 (CCRF-CEM) | GI50 (SN12C) | GI50 (SK-MEL-28) | GI50 (M14) | GI50 (KM12) | GI50 (HCT-116) | GI50 (MCF7) | GI50 (NCI/ADR-RES) | GI50 (MOLT-4) | GI50 (TK-10) | GI50 (HL-60) | GI50 (ACHN) | GI50 (HOP-62) | GI50 (UO-31) | GI50 (HCC 2998)
Cc1ccc(S(=O)(=O)O)cc1.c1cc2c(c(NC3=NCCN3)c1)CCCC2 | > 100 µM (inactive) | > 100 µM (inactive) | > 100 µM (inactive) | > 100 µM (inactive) | > 100 µM (inactive) | > 100 µM (inactive) | > 100 µM (inactive) | > 100 µM (inactive) | > 100 µM (inactive) | > 100 µM (inactive) | > 100 µM (inactive) | > 100 µM (inactive) | > 100 µM (inactive) | > 100 µM (inactive) | > 100 µM (inactive) | > 100 µM (inactive) | > 100 µM (inactive) | > 100 µM (inactive) |  | 
Oc1ccc(/N=C/c2ccc(/C=N/c3ccc(O)cc3)cc2)cc1 | 13.8 µM (inactive) | 14.5 µM (inactive) | 14.2 µM (inactive) | 16 µM (inactive) | 16.9 µM (inactive) | 6.41 µM (inactive) | 14.9 µM (inactive) | 18.8 µM (inactive) | 17.1 µM (inactive) | 15.3 µM (inactive) | 14.8 µM (inactive) | 22.9 µM (inactive) | 14.8 µM (inactive) | 3.88 µM (inactive) | 18.1 µM (inactive) |  | 13.1 µM (inactive) | 17.6 µM (inactive) | 15.2 µM (inactive) | 
O=c1[nH]/c(=C/c2ccc3c(c2)OCO3)c(=O)[nH]/c1=C/c1ccc2c(c1)OCO2 | > 10 µM (inactive) | > 10 µM (inactive) | > 10 µM (inactive) | > 10 µM (inactive) | > 10 µM (inactive) | > 10 µM (inactive) | > 10 µM (inactive) | 8.89 µM (inactive) | > 10 µM (inactive) | > 10 µM (inactive) | > 10 µM (inactive) | > 10 µM (inactive) | > 10 µM (inactive) | > 10 µM (inactive) | > 10 µM (inactive) |  | > 10 µM (inactive) | > 10 µM (inactive) | > 10 µM (inactive) | > 10 µM (inactive)
Cc1ccc(S(=O)(=O)NC(=O)NS(=O)(=O)O)cc1 | > 100 µM (inactive) | > 100 µM (inactive) | > 100 µM (inactive) | > 100 µM (inactive) | > 100 µM (inactive) | > 100 µM (inactive) | > 100 µM (inactive) | > 100 µM (inactive) | > 100 µM (inactive) | > 100 µM (inactive) | > 100 µM (inactive) | > 100 µM (inactive) | > 100 µM (inactive) | > 100 µM (inactive) | > 100 µM (inactive) | > 100 µM (inactive) | > 100 µM (inactive) | > 100 µM (inactive) | > 100 µM (inactive) | 
CCOC(=O)Cn1c2ccc(Br)cc2c2nc3ccccc3nc21 | > 100 µM (inactive) | > 100 µM (inactive) | > 100 µM (inactive) | > 100 µM (inactive) |  | > 100 µM (inactive) | > 100 µM (inactive) | > 100 µM (inactive) | > 100 µM (inactive) | > 100 µM (inactive) | > 100 µM (inactive) |  | > 100 µM (inactive) | > 100 µM (inactive) | > 100 µM (inactive) |  | > 100 µM (inactive) | > 100 µM (inactive) | > 100 µM (inactive) | 
Cc1ccc([N+](=O)[O-])cc1S(=O)(=O)Nc1ccc(C2=NN(C(=O)c3ccccc3)C(c3cccs3)C2)cc1 (stereo not given) | 22.4 µM (inactive) | 20.8 µM (inactive) | 16.3 µM (inactive) | 33 µM (inactive) | 20.6 µM (inactive) | 37.8 µM (inactive) | 22.4 µM (inactive) | 63.5 µM (inactive) | 24.1 µM (inactive) | 32.7 µM (inactive) | 22.3 µM (inactive) | 18.1 µM (inactive) | 30.9 µM (inactive) | 20.4 µM (inactive) | 21.4 µM (inactive) | 26.3 µM (inactive) | 25.4 µM (inactive) | 20.9 µM (inactive) | 24 µM (inactive) | 
NC1OC(COC(=O)c2ccccc2)C(O)C(OC(=O)c2ccccc2)C1OC(=O)c1ccccc1 (stereo not given) | 17.9 µM (inactive) | 17.7 µM (inactive) | 18.7 µM (inactive) | 33 µM (inactive) | 41.3 µM (inactive) |  | 24.3 µM (inactive) | 20.2 µM (inactive) | 24.3 µM (inactive) |  | 18.8 µM (inactive) | 23.9 µM (inactive) | 33.3 µM (inactive) | 14.7 µM (inactive) | 61.9 µM (inactive) |  | 19.3 µM (inactive) | 22.7 µM (inactive) | 33.5 µM (inactive) | 
CC(NC(=O)C(C)C(=O)NCc1ccc(C(F)(F)F)cc1)C(N)=O (stereo not given) | > 100 µM (inactive) | > 100 µM (inactive) | > 100 µM (inactive) | 63.8 µM (inactive) | > 100 µM (inactive) | > 100 µM (inactive) | > 100 µM (inactive) |  | > 100 µM (inactive) | > 100 µM (inactive) | > 100 µM (inactive) | > 100 µM (inactive) | > 100 µM (inactive) | > 100 µM (inactive) |  | > 100 µM (inactive) | > 100 µM (inactive) |  | > 100 µM (inactive) | 
COC(=O)c1c(-c2ccc(Cl)cc2)cc2c3ccccc3n(C)c2c1C(=O)OC | > 100 µM (inactive) | > 100 µM (inactive) | > 100 µM (inactive) | > 100 µM (inactive) | > 100 µM (inactive) | 7.85 µM (inactive) | > 100 µM (inactive) | > 100 µM (inactive) | > 100 µM (inactive) | > 100 µM (inactive) | > 100 µM (inactive) | 38.3 µM (inactive) | > 100 µM (inactive) | 23.1 µM (inactive) | > 100 µM (inactive) | 26.8 µM (inactive) | > 100 µM (inactive) | > 100 µM (inactive) | 2.47 µM (inactive) | 
Cc1ccc(-n2cc([Si](C)(C)C)nn2)s1 | > 100 µM (inactive) | > 100 µM (inactive) | > 100 µM (inactive) | > 100 µM (inactive) | > 100 µM (inactive) |  | > 100 µM (inactive) | > 100 µM (inactive) | > 100 µM (inactive) |  | > 100 µM (inactive) | > 100 µM (inactive) | 48.4 µM (inactive) |  | > 100 µM (inactive) |  | > 100 µM (inactive) |  | 84.3 µM (inactive) | 81.3 µM (inactive)
CCN(CCC#N)C(=O)Nc1ccccc1 | > 100 µM (inactive) | > 100 µM (inactive) | > 100 µM (inactive) | > 100 µM (inactive) | > 100 µM (inactive) | > 100 µM (inactive) | > 100 µM (inactive) | > 100 µM (inactive) | > 100 µM (inactive) | 86.7 µM (inactive) | > 100 µM (inactive) | > 100 µM (inactive) | > 100 µM (inactive) | > 100 µM (inactive) | > 100 µM (inactive) |  | > 100 µM (inactive) | > 100 µM (inactive) | > 100 µM (inactive) | > 100 µM (inactive)
O=C1c2cc(I)ccc2N2CCN=C2N1Cc1ccccc1 | 55 µM (inactive) | 49.5 µM (inactive) | > 100 µM (inactive) | 63.8 µM (inactive) | 47.4 µM (inactive) | > 100 µM (inactive) | > 100 µM (inactive) | > 100 µM (inactive) | > 100 µM (inactive) | > 100 µM (inactive) | > 100 µM (inactive) | > 100 µM (inactive) | 70.8 µM (inactive) | 4.46 µM (inactive) | > 100 µM (inactive) | 0.551 µM (active) | 51.2 µM (inactive) | > 100 µM (inactive) | 57.4 µM (inactive) | 
O=[N+]([O-])c1ncc(N(CCO)CCO)s1 | 53.5 µM (inactive) | 45.3 µM (inactive) | 67.8 µM (inactive) | > 100 µM (inactive) | > 100 µM (inactive) | 22.8 µM (inactive) | 41.4 µM (inactive) | 16.4 µM (inactive) | 34.8 µM (inactive) | > 100 µM (inactive) | 37.1 µM (inactive) | 37 µM (inactive) |  | 36.6 µM (inactive) | 34.9 µM (inactive) | 17.7 µM (inactive) | 37.7 µM (inactive) | 42.9 µM (inactive) | 43.1 µM (inactive) | 47 µM (inactive)
O=C(O)c1ccccc1C(=O)Nn1cnnc1 | > 100 µM (inactive) | > 100 µM (inactive) | > 100 µM (inactive) | > 100 µM (inactive) | > 100 µM (inactive) | > 100 µM (inactive) | > 100 µM (inactive) | > 100 µM (inactive) | > 100 µM (inactive) | > 100 µM (inactive) | > 100 µM (inactive) | > 100 µM (inactive) | > 100 µM (inactive) | > 100 µM (inactive) | > 100 µM (inactive) |  | > 100 µM (inactive) | > 100 µM (inactive) | > 100 µM (inactive) | > 100 µM (inactive)
CNC(=O)C1CCCCNC(=O)CCC(NC(=O)OCc2ccccc2)C(=O)N1 (stereo not drawn) (Cbz-Glu-Lys-NHMe; lactam 1-2; configuration not given here) | > 100 µM (inactive) | > 100 µM (inactive) | > 100 µM (inactive) | > 100 µM (inactive) | > 100 µM (inactive) | > 100 µM (inactive) | > 100 µM (inactive) | > 100 µM (inactive) | > 100 µM (inactive) | > 100 µM (inactive) | > 100 µM (inactive) | > 100 µM (inactive) | > 100 µM (inactive) | > 100 µM (inactive) | > 100 µM (inactive) | > 100 µM (inactive) | > 100 µM (inactive) | > 100 µM (inactive) | > 100 µM (inactive) | 
